Results reported in patent US8258098B2, “Antitumoral treatments” (Pharma Mar, S.A., priority 2006, dated 2012).

Columns and labels:
A549 cells = test: MTS cytotoxicity assay, 72 hours, single agents and combinations with Aplidine; type: cell-based; settings: Homo sapiens, A549, 72 hours drug exposure, read-out: IC50 (Molar)
Method: (§1) Day before plating cells all cultures were fed with fresh, complete growth media. On the harvest (plating) day cells were counted by Trypan Blue exclusion staining method (basic cell culture). Cells were harvested and seeded in 96 well microtiter plates at 10,000 cells per well in 190 μL of media and incubated for 24 hours to allow the cells to attach before drug addition. Cells were treated with the drugs and the cytotoxic effect was measured by the MTS Assay (Tetrazolium), which is a colorimetric method for determining the number of viable cells. After the 72 hours of incubation with drug, 25 μL of MTS+PMS solution was added to each microtiter well and incubated for 4 hours at 37° C. Plates were then removed from incubator and placed on plate shaker for 5 minutes (covered with aluminium foil for protection from light). Optical densities were read at 490 nm on spectrophotometer plate reader.
(§2) The microtiter plates were incubated for 72 hrs, at 5% CO2 and 37° C. The cytotoxic effect was measured by MTS Assay. Optical densities read at 490 nm. Normalized data was plotted and interpreted as described. Data was analysed as: • 1. Prism (Graphpad) software program was used to normalized the data to control values (100%=cell growth in the absence of agent (drug); 0%=blank control). • 2. Data normalized were plotted as scatter plots.
(§3) Conversely, antagonism was concluded when inhibition was lower than both maxima. […] Statistical significance was assessed by performing a student's t-test on the inhibition at each dose ratio versus the inhibition at the maximum for each drug.
(§4) As a visual aid, response values were plotted on a scatter plot with dose ratios given on the x-axis and % response values on the y-axis. […] In cases where response values at the two endpoints were approximately equivalent, points lying above or below this predicted line of additivity could be interpreted as representing antagonistic or synergistic drug interaction, respectively.

HL60 cells = test: as above; type: cell-based; settings: Homo sapiens, HL-60, HL60, 72 hours drug exposure, read-out: IC50 (Molar)
Method: as §1, §2, §3, §4

HT29 cells = test: as above; type: cell-based; settings: Homo sapiens, HT-29, HT29, 72 hours drug exposure, read-out: IC50 (Molar)
Method: as §1, §2, §3, §4

MOLT3 cells = test: as above; type: cell-based; settings: Homo sapiens, MOLT-3, MOLT3, 72 hours drug exposure, read-out: IC50 (Molar)
Method: as §1, §2, §3, §4

MX1 cells = test: as above; type: cell-based; settings: Homo sapiens, MX1, 72 hours drug exposure, read-out: IC50 (Molar)
Method: as §1, §2, §3, §4

PC3 cells = test: as above; type: cell-based; settings: Homo sapiens, PC-3, PC3, 72 hours drug exposure, read-out: IC50 (Molar)
Method: as §1, §2, §3, §4

[1] = test system: LOX-IMVI melanoma tumor xenografts; test: Net tumor volume in tumor xenografts; type: in vivo, female athymic mice; settings: DTIC 30 mg/kg, Carboplatin 25 mg/kg, i.p.
Text: (§5) Athymic nude female mice were received from Harlan Sprague Dawley, Madison, Wis. at 4-5 weeks of age. Mice were acclimated to the laboratory for at least one week prior to implantation of tumor. Animals were housed in static cages with food and water allowed ad libitum. Experimental animals were implanted with either tumor fragments derived from transplantation established human tumors or with cells obtain directly from in vitro culture. Tumors were implanted subcutaneously on the right flank on Day 0.
(§6) Tumor size measurements were recorded twice weekly beginning on day 4 or 5 using vernier calipers. The formula to calculate volume for a prolate ellipsoid was used to estimate tumor volume from 2-dimensional tumor measurements: tumor volume (mm^3)=(length×width^2)÷2. Assuming unit density, volume was converted to weight (i.e., 1 mm^3=1 mg). […] Treatments were initiated and administered on an individual body weight basis. A dose range finding study was performed on each tumor model to determine the appropriate dose level of each compound used in the combination studies.

[2] = test system: MRI-H187 melanoma tumor xenografts; test: Net tumor volume in tumor xenografts; type: in vivo, female athymic mice; settings: Aplidine 50 μg/kg, DTIC 40 mg/kg, Carboplatin 25 mg/kg, i.p.
Text: as §5, §6

SKBR3 cells = test: MTS cytotoxicity assay, 72 hours, single agents and combinations with Aplidine; type: cell-based; settings: Homo sapiens, SK-BR-3, SKBR3, 72 hours drug exposure, read-out: IC50 (Molar)
Method: as §1, §2, §3, §4

[3] = test system: CaKi-1 renal tumor xenografts; test: Net tumor volume in tumor xenografts; type: in vivo, female athymic mice; settings: Aplidine 50 μg/kg i.p., Avastin 5.0 mg/kg i.p., IL-2 2 μg/mouse i.p., INF-α 200,000 U/mouse s.c.
Text: as §5, §6

[4] = test system: MRI-H121 renal tumor xenografts; test: Net tumor volume in tumor xenografts; type: in vivo, female athymic mice; settings: Aplidine 25 μg/kg i.p., Avastin […] i.p., IL-2 1 μg/mouse i.p., INF-α 200,000 U/mouse s.c.
Text: as §5, §6

## O=c1[nH]cc(F)c(=O)[nH]1 [5-FU, 5-fluorouracil]
A549 cells
  IC50: 1400 µM
HL60 cells
  IC50: 1200 µM
HT29 cells
  IC50: 880 µM
MOLT3 cells
  IC50: 11 µM
MX1 cells
  IC50: > 100 µM
PC3 cells
  IC50: 220 µM

## CN(C)/N=N/c1[nH]cnc1C(N)=O [DTIC, dacarbazine]
[1]; DAY 8, Aplidine 50 μg/kg
  Net Tumor Volume ± S.E.M.: 208 ± 25 mg
[1]; DAY 12, Aplidine 50 μg/kg
  Net Tumor Volume ± S.E.M.: 699 ± 57 mg
[1]; DAY 14, Aplidine 50 μg/kg
  Net Tumor Volume ± S.E.M.: 950 ± 57 mg
[1]; DAY 19, Aplidine 50 μg/kg
  Net Tumor Volume ± S.E.M.: 2695 ± 560 mg
[2]; MRI-H187, DAY 20
  Net Tumor Volume ± S.E.M.: 148 ± 14 mg
[2]; MRI-H187, DAY 24
  Net Tumor Volume ± S.E.M.: 264 ± 60 mg
[2]; MRI-H187, DAY 27
  Net Tumor Volume ± S.E.M.: 377 ± 98 mg
[2]; MRI-H187, DAY 31
  Net Tumor Volume ± S.E.M.: 558 ± 152 mg
[2]; MRI-H187, DAY 34
  Net Tumor Volume ± S.E.M.: 681 ± 187 mg
[2]; MRI-H187, DAY 38
  Net Tumor Volume ± S.E.M.: 927 ± 274 mg
[2]; MRI-H187, DAY 46
  Net Tumor Volume ± S.E.M.: 1508 ± 427 mg
[2]; MRI-H187, DAY 49
  Net Tumor Volume ± S.E.M.: 1804 ± 507 mg
[2]; MRI-H187, DAY 52
  Net Tumor Volume ± S.E.M.: 2036 ± 525 mg
[2]; MRI-H187, DAY 55
  Net Tumor Volume ± S.E.M.: 2123 ± 558 mg
[2]; MRI-H187, DAY 59
  Net Tumor Volume ± S.E.M.: 2166 ± 563 mg
[2]; MRI-H187, DAY 62
  Net Tumor Volume ± S.E.M.: 2333 ± 433 mg
[2]; MRI-H187, DAY 66
  Net Tumor Volume ± S.E.M.: 2508 ± 536 mg

## CC(=O)O[C@H]1C(=O)[C@@]2(C)[C@H]([C@H](OC(=O)c3ccccc3)[C@]3(O)C[C@H](OC(=O)[C@H](O)[C@@H](NC(=O)c4ccccc4)c4ccccc4)C(C)=C1C3(C)C)[C@]1(OC(C)=O)CO[C@@H]1C[C@@H]2O [paclitaxel]
A549 cells
  IC50: 0.013 µM
HL60 cells
  IC50: 0.016 µM
HT29 cells
  IC50: 0.005 µM
MOLT3 cells
  IC50: 77 µM
MX1 cells
  IC50: 9.4 µM
SKBR3 cells
  IC50: > 100 µM

## Avastin ®: Bevacizumab (Avastin®), standard of care agent
[3]; CaKi-1, DAY 13
  Net Tumor Volume ± S.E.M.: 105 ± 3 mg
[3]; CaKi-1, DAY 15
  Net Tumor Volume ± S.E.M.: 162 ± 14 mg
[3]; CaKi-1, DAY 19
  Net Tumor Volume ± S.E.M.: 286 ± 49 mg
[3]; CaKi-1, DAY 22
  Net Tumor Volume ± S.E.M.: 398 ± 53 mg
[3]; CaKi-1, DAY 26
  Net Tumor Volume ± S.E.M.: 632 ± 79 mg
[3]; CaKi-1, DAY 29
  Net Tumor Volume ± S.E.M.: 811 ± 90 mg
[3]; CaKi-1, DAY 33
  Net Tumor Volume ± S.E.M.: 985 ± 111 mg
[3]; CaKi-1, DAY 36
  Net Tumor Volume ± S.E.M.: 1251 ± 109 mg
[3]; CaKi-1, DAY 41
  Net Tumor Volume ± S.E.M.: 1654 ± 189 mg
[3]; CaKi-1, DAY 47
  Net Tumor Volume ± S.E.M.: 2170 ± 253 mg
[3]; CaKi-1, DAY 50
  Net Tumor Volume ± S.E.M.: 2842 ± 379 mg
[4]; MRI-H121, DAY 11
  Net Tumor Volume ± S.E.M.: 106 ± 7 mg
[4]; MRI-H121, DAY 14
  Net Tumor Volume ± S.E.M.: 171 ± 16 mg
[4]; MRI-H121, DAY 18
  Net Tumor Volume ± S.E.M.: 306 ± 27 mg
[4]; MRI-H121, DAY 19
  Net Tumor Volume ± S.E.M.: 299 ± 39 mg
[4]; MRI-H121, DAY 21
  Net Tumor Volume ± S.E.M.: 365 ± 39 mg
[4]; MRI-H121, DAY 26
  Net Tumor Volume ± S.E.M.: 503 ± 57 mg
[4]; MRI-H121, DAY 29
  Net Tumor Volume ± S.E.M.: 678 ± 77 mg
[4]; MRI-H121, DAY 32
  Net Tumor Volume ± S.E.M.: 899 ± 93 mg
[4]; MRI-H121, DAY 35
  Net Tumor Volume ± S.E.M.: 898 ± 69 mg
[4]; MRI-H121, DAY 39
  Net Tumor Volume ± S.E.M.: 1240 ± 124 mg
[4]; MRI-H121, DAY 42
  Net Tumor Volume ± S.E.M.: 1383 ± 148 mg
